# Where two headings read alike, the source gives them in different places.
# How the values were obtained:
# [1] = T1 of hyperpolarized ^15N sites bound to labile protons upon dissolution in H2O and D2O, 5.8 T; assay type: physicochemical; conditions: for T1 upon dissolution in D2O / T1 upon dissolution in H2O: ≈37° C. (35-40° C.), 5.8 T, n=2; for T1 prolongation D2O versus H2O: deuteration of labile protons; for decrease in polarization during 1 min transfer and administration: entire process at physiological temperatures
# Description: Spin polarization and fast dissolution were carried out in a dDNP commercial device (HyperSense, Oxford Instruments Molecular Biotools, Oxford, UK). The sample was maintained at 1.4-1.5 K and was irradiated at 94.110 GHz. ^15N NMR spectroscopy was performed in a 5.8 T NMR spectrometer (RS2D, Mundolsheim, France), using a 10-mm broadband NMR probe. The temperature in the NMR tube was continuously monitored using an NMR compatible temperature probe (Osensa, Burnaby, BC, Canada). Spectral processing and calculation of integrated intensities was performed using MNova (Mestrelab Research, Santiago de Compostela, Spain). Liquid state polarization was determined by comparing the integrated intensity of the first hyperpolarized spectrum to the integrated intensity of a standard containing a known concentration of ^15N label, where the thermal equilibrium polarization is given as PolTE=tanh(ℏγB/2kbT) Determination of the T1 of the hyperpolarized sites was performed by curve fitting of the signal decay to the following equation: S(t)=S0·e^−t/T^1·(cos θ)^t/TR in which TR, the time between excitations, and θ, the nutation angle of excitation, are known. For measurements of T1 in whole blood, 5.5 ml of whole blood in heparinized tube was obtained from a healthy volunteer and maintained at 20° C. for 2.5 h. Ten minutes before dissolution of the hyperpolarized urea sample, the blood was loaded into a NMR tube in the spectrometer and maintained at 36° C. The hyperpolarized urea sample was dissolved into a container outside the magnet and was injected in 0.5-1.0 mL aliquots followed by ≈2 ml of air through a tube at the bottom of the sample, to ensure no sample remained in the inlet line and complete mixing of the freshly injected solution with the blood. The sample was visually inspected at the end of the experiment to confirm that the hyperpolarized solution was well mixed with the blood and that there was no separation of the blood. Curve fitting was performed using Matlab (Mathworks, Natick, Mass., USA). Statistical analysis was performed using Microsoft Excel (Microsoft, Ra'anana, Israel).
# [2] = Liquid state polarization and buildup of [^15N2]urea by dDNP; assay type: physicochemical
# Description: The temperature in the NMR tube was continuously monitored using an NMR compatible temperature probe (Osensa, Burnaby, BC, Canada). […] Curve fitting was performed using Matlab (Mathworks, Natick, Mass., USA).
# [3] = Temperature dependence of T1 of hyperpolarized [^15N2]urea in D2O; assay type: physicochemical; design: T1 Average ± SD: unit not given here
# Description: The experiment shown in FIG. 9B clarified the importance of maximizing the T1 of [^15N2]urea for optimal storage of the polarization, in order to expand the time scale in which the hyperpolarized signal from a single dose can be observed in vivo. As for storage there are no limitation to physiological temperatures, the effect of temperature on the T1 of [^15N2]urea was measured. Given the impressive signal afforded by the dDNP process and its long lifetime, it was possible to measure the T1 of the ^15N sites of urea for a range of temperatures with a single sample that was slowly heated or cooled while the temperature was continuously monitored with an NMR compatible temperature probe (FIG. 10A, top). In order to determine the temperature dependent T1, the decay data were retrospectively binned to consecutive 10° C. segments (FIG. 10A, alternating shading indicates different 10° C. segments) and the T for each temperature segment was determined (FIG. 10B, inset).
# The hyperpolarized decay acquisitions were carried out with 3-10° excitation angle and 5-20 s repetition time. There was no significant difference in the T determined with different acquisition parameters.
# Individual measurements are shown. Each column represents a single hyperpolarized decay, obtained with the same flip angle and repetition time. Using an online measurement of the temperature inside the NMR tube, we could differentiate different temperature regimes within a single decay and thus assess the effect of temperature on T1. T1 values were determined by fitting the equation describing the mono-exponential decay of a hyperpolarized signal: S(t)=S0·e−t/T1·(cos θ)t/TR.
# The angle of excitation was determined by calibration of the 90o excitation on a ^15N labeled standard. The error for each individual measurement represents the 95% confidence interval of the curve fit.
# The temperature gradient was formed by adding a solution at a temperature different than the spectrometer temperature so that throughout the acquisition the sample slowly cooled/warmed to the spectrometer temperature. […] Variability in the determined T1 values may be due to slight variations in the effective angle of excitation and/or the amount of trace protons present in different samples; indeed when different temperature segments are compared within the same hyperpolarized decay, (i.e. for the same sample on the same day), the dependence of T1 on the temperature can be even more clearly seen. The average and standard deviation of all measurements in the same temperature regime are shown in the column on the right.
# [4] = in vivo; cited from earlier work
# [5] = remark: listed apart in the source
# Description: The dissolution process is detailed in the results section. […] Unless otherwise stated, the dissolved hyperpolarized solution was directly injected to a screw cup 10 mm NMR tube in a 5.8T NMR spectrometer via a PTFE line of about 2.4 m length with 3 s of He(g) chase. This line was wrapped with a heating tape (MRC, Holon, Israel) that enabled control over the temperature of the dissolution medium arriving to the NMR tube directly or to a collection tube in the fringe field of the spectrometer. ^15N-Nuclear Magnetic Resonance (NMR) spectra were continuously recorded immediately at the start of the dissolution process. […] In the experiments in body fluids and in experiments in which the hyperpolarized solution was first cooled to temperatures below room temperature, the dissolution media was first collected in a conical tube placed in the spectrometer's fringe field, and then was injected by syringe via a PEEK line to the NMR tube that was placed in the magnet.
# For heating this hyperpolarized solution prior to arrival to the NMR tube, the PTFE line leading the hyperpolarized solution out of the spin polarization device was wrapped with a heating tape connected to a temperature controller (MRC, Holon, Israel). In this way, hyperpolarized solutions at temperatures higher than 26° C. could be obtained. For cooling the hyperpolarized solution, the heating tape was not turned on and the dissolution medium was mixed with 0 to 4 mL of D2O at 2° C. in a collection tube placed in ice-water bath in the fringe field of the magnet, prior to injection.
# ^15N-NMR spectroscopy was performed in a 5.8T NMR spectrometer (RS2D, Mundolsheim, France), using a 10 mm broad-band NMR probe. The chemical shift scale of the spectra presented herein was calibrated based on a separate measurement of a [^15N2]urea standard sample (4M in H2O:D2O 80:20), carried out prior to hyperpolarized ^15N acquisitions, calibrating the [^15N2]urea signal to −306 ppm (relative to nitromethane). For enhancement factor calculation, the spectra were collected with a high flip angle of […] and a repetition time of 2 s. For T1 calculation, the spectra were acquired with a low flip angle of […] and a longer repetition time of 5-10 s.
# The temperature in the NMR tube was continuously monitored using an NMR compatible temperature probe (Osensa, Burnaby, BC, Canada).
# Determination of the T1 of the hyperpolarized sites was performed by curve fitting of the signal decay to the following equation: S(t)=S0·e^−t/T^1·(cos θ)^t/TR, in which TR, the time between excitations, and θ, the nutation angle of excitation, are known. Curve fitting was performed using Matlab (Mathworks, Natick, Mass., USA).
compound,measurement,setting,value
[15NH2]C([15NH2])=O [[^15N2]urea],T1 upon dissolution in D2O,[1],200 ± 20 s
same,T1 upon dissolution in H2O,[1],33 ± 5 s
same,T1 prolongation D2O versus H2O,[1],6.1 fold
same,decrease in polarization during 1 min transfer and administration,[1],≈ 25%
same,T1 in whole blood,2nd injection,12.0 ± 0.2 s
same,T1 in whole blood,3rd injection,12.9 ± 0.6 s
same,T1 in whole blood,37° C.,10 s
same,T1 in whole human blood,"first decay curve, D2O:whole blood 1:10, 95% CI",9.8 ± 0.2 s
same,polarization buildup time,[2]; R^2=0.93,2.3 ± 1.2 h
same,maximum polarization,"[2]; liquid state polarization after varying irradiation times, 1.4-1.5 K",5.1±1.6%
same,T1 Average ± SD,"[3]; 15-25° C., n = 3",146 ± 23
same,T1 Average ± SD,"[3]; 25-35° C., n = 4",191 ± 33
same,T1 Average ± SD,"[3]; 35-45° C., n = 6",226 ± 38
same,T1 Average ± SD,"[3]; 45-55° C., n = 4",308 ± 34
same,T1 Average ± SD,"[3]; 55-65° C., n = 4",351 ± 40
same,T1 Average ± SD,"[3]; 65-75° C., n = 3",382 ± 48
same,T1,"[3]; #1, θ 10°, TR 5 s, 35-45° C.",228 ± 4
same,T1,"[3]; #2, θ 3°, TR 10 s, 15-25° C., ± 95% CI of fit",155 ± 3
same,T1,"[3]; #2, θ 3°, TR 10 s, 25-35° C.",196 ± 8
same,T1,"[3]; #3, θ 10°, TR 10 s, 25-35° C.",209 ± 2
same,T1,"[3]; #3, θ 10°, TR 10 s, 35-45° C.",266 ± 4
same,T1,"[3]; #3, θ 10°, TR 10 s, 45-55° C.",355 ± 8
same,T1,"[3]; #3, θ 10°, TR 10 s, 55-65° C.",382 ± 17
same,T1,"[3]; #4, θ 10°, TR 10 s, 25-35° C.",216 ± 2
same,T1,"[3]; #4, θ 10°, TR 10 s, 35-45° C.",272 ± 3
same,T1,"[3]; #4, θ 10°, TR 10 s, 45-55° C.",340 ± 5
same,T1,"[3]; #4, θ 10°, TR 10 s, 55-65° C.",386 ± 12
same,T1,"[3]; #4, θ 10°, TR 10 s, 65-75° C.",416 ± 23
same,T1,"[3]; #5, θ 10°, TR 10 s, 35-45° C.",216 ± 5
same,T1,"[3]; #5, θ 10°, TR 10 s, 45-55° C.",273 ± 4
same,T1,"[3]; #5, θ 10°, TR 10 s, 55-65° C.",305 ± 14
same,T1,"[3]; #5, θ 10°, TR 10 s, 65-75° C.",327 ± 16
same,T1,"[3]; #6, θ 10°, TR 10 s, 15-25° C.",112 ± 6
same,T1,"[3]; #6, θ 10°, TR 10 s, 25-35° C.",143 ± 1
same,T1,"[3]; #7, θ 10°, TR 15 s, 35-45° C.",198 ± 2
same,T1,"[3]; #8, θ 10°, TR 15 s, 35-45° C.",176 ± 5
same,T1,"[3]; #9, θ 5°, TR 20 s, 45-55° C.",284 ± 6
same,T1,"[3]; #9, θ 5°, TR 20 s, 55-65° C.",332 ± 11
same,T1,"[3]; #9, θ 5°, TR 20 s, 65-75° C.",404 ± 41
same,T1,"[3]; #10, θ 10°, TR 10 s, 15-25° C.",163 ± 20
same,T1,"[3]; D2O, 65-75° C. (above 65° C.)",more than 6 min
same,T1,"[3]; deuterated water, physiological temperatures",> 3 min
"Cl.N[C@@H](CCCNC(=[15NH])[15NH2])C(=O)O [[guanido-^15N2]arginine, L-[guanido-^15N2]arginine:HCl]",T1 upon dissolution in D2O,[1],44 ± 1 s
same,T1 upon dissolution in H2O,[1],6.6 ± 0.3 s
same,T1 prolongation D2O versus H2O,[1],6.7 fold
"O=[N+]([O-])O [nitrate (NO3—), nitrate]",half-life in the circulation,[4],5 to 6 h
"O=NO [Nitrite (NO2), Nitrite]",half-life in the circulation,[4],0.333 h
"N[13C](N)=O [carbon-13 labeled urea, reference compound]",decrease in polarization during 1 min transfer and administration,[1],≈ 80%
O=C1CCC(=O)[15NH]1 [[^15N]succinimide],T1 upon dissolution in D2O,[1],215 ± 2 s
same,T1 upon dissolution in H2O,[1],45 ± 3 s
same,T1 prolongation D2O versus H2O,[1],4.8 fold
"O=[15N][O-].[Na+] [[^15N]nitrite, sodium [^15N]nitrite]",T1,"[5]; D2O, n=2",14.8 ± 0.6 s
same,T1,"[5]; H2O, n=2",13.6 ± 0.5 s
same,T1,"[5]; same sample, D2O (co-polarized nitrate and nitrite)",14 s
